Read-outs that look alike come from different tables or passages of the source.
How the values were obtained:
[1] = target: T1, CIB1 and αIIb interaction (CIB1-GST : F-αIIb peptide) (Homo sapiens, UniProt Q99828); experiment: FP assay, 1536-well qHTS format (primary and confirmatory screen); assay type: binding; details: for Curve Class (confirmatory screen) / CONFIRMATORY SCREEN Curve Class: qHTS curve class
T1 construct: made in house; host or cells: BL-21 plus RIL cells (E. coli)
T1 sequence (Q99828 1-191): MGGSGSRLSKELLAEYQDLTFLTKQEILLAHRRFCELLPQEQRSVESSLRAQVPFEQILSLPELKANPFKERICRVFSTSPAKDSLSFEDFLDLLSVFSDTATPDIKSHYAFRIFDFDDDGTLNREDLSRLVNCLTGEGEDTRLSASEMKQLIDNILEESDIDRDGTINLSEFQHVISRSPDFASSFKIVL

[2] = target: T2, GST-CIB1 : F-scrambled peptide (Homo sapiens, UniProt Q99828); experiment: FP scrambled-peptide counter screen, 1536-well format; assay type: binding; details: for Curve Class (counterscreen) / COUNTERSCREEN Curve Class: qHTS curve class
T2 construct: made in house; host or cells: BL-21 plus RIL cells (E. coli)
T2 sequence (Q99828 1-191): T1 sequence (Q99828 1-191)

[3] = Table S3, confirmatory screen, YES/NO call
[4] = Table S3, confirmatory screen, a negative sign marks inhibitory curves
[5] = Table S3, confirmatory screen, negative = inhibition
[6] = Table S3, confirmatory screen, read-out: IC50 [μM] (confirmatory screen)
[7] = qHTS FP screen hits, Table S2, negative = inhibition
[8] = qHTS FP screen hits, Table S2, one class per curve where COUNT > 1, negative sign = inhibitory curve
[9] = qHTS FP screen hits, Table S2, read-out: IC50
[10] = Table S3, counterscreen, a negative sign marks inhibitory curves
[11] = Table S3, counterscreen, negative = inhibition
[12] = Table S3, counterscreen, read-out: IC50 [μM] (counterscreen)
[13] = qHTS primary screen hits, Table S2, negative = inhibition
[14] = qHTS primary screen hits, Table S2, negative sign = inhibitory curve, several classes where COUNT > 1
[15] = qHTS primary screen hits, Table S2, read-out: IC50
[16] = confirmatory screen, negative sign = inhibitory curve
[17] = confirmatory screen, read-out: IC50 [μM] (confirmatory screen)
[18] = counterscreen, negative sign = inhibitory curve
[19] = counterscreen, read-out: IC50 [μM] (counterscreen)
[20] = scrambled-peptide counterscreen
[21] = qHTS primary screen hits, Table S2, negative sign = inhibitory curve

| Compound | Efficacy (%) [1, 7] | Curve Class [1, 8] | IC50 [1, 9] | Efficacy (%) [1, 13] | Curve Class [1, 14] | IC50 [1, 15] | Efficacy (%) (confirmatory screen) ([1]; confirmatory screen) | Confirm? (confirmatory screen) ([1]; confirmatory screen, YES/NO) | Curve Class (confirmatory screen) [1, 16] | IC50 [1, 17] | Efficacy (%) (counterscreen) ([2]; counterscreen) | Curve Class (counterscreen) [2, 18] | IC50 [2, 19] | further results |
| --- | --- | --- | --- | --- | --- | --- | --- | --- | --- | --- | --- | --- | --- | --- |
| O=C1c2ccccc2C(=O)c2c1ccc(O)c2O [NCGC00095227-06] | -161% | -2.1 | 35.5 µM | – | – | – | – | – | – | – | – | – | – | Confirm? (confirmatory screen) [1, 3]: YES; Curve Class (confirmatory screen) [1, 4]: -1.1; Efficacy (%) (confirmatory screen) [1, 5]: -175%; IC50 [1, 6]: 17.8 µM; Curve Class (counterscreen) [2, 10]: -2.1; Efficacy (%) (counterscreen) [2, 11]: -195%; IC50 [2, 12]: 22.4 µM |
| CN(C)CCN1C(=O)c2cccc3cc(N)cc(c23)C1=O [NCGC00346513-01] | – | – | – | -32% | -1.2 | 1.1 µM | – | – | – | – | – | – | – | CONFIRMATORY SCREEN Efficacy (%) ([1]; confirmatory screen): -50%; CONFIRMATORY SCREEN Curve Class ([1]; confirmatory screen): 4; COUNTERSCREEN Efficacy (%) ([2]; counterscreen): -24%; COUNTERSCREEN Curve Class ([2]; counterscreen): 4 |
| O=C(O)C(F)(F)F.O=S(=O)(Nc1nccs1)c1ccc(NCc2cc(F)cc(Cl)c2O)cc1 [NCGC00273967-01] | – | – | – | -28% | -1.4 | 1.8 µM | -40% | YES | -1.4 | 31.6 µM | 170% | 3 | 39.8 µM | Confirm? (counterscreen) ([2]; counterscreen, YES/NO): YES |
| Cl.N=C(NCCCCCCNC(=N)NC(=N)Nc1ccc(Cl)cc1)NC(=N)Nc1ccc(Cl)cc1 [NCGC00016246-13] | -37% | -2.2 | 50.1 µM | – | – | – | -57% | YES | -2.2 | 35.5 µM | -37% | -1.2 | 22.4 µM | – |
| O=c1oc2ccccc2c(O)c1C(CC(O)c1ccc(-c2ccc(Br)cc2)cc1)c1ccccc1 (stereo not shown) [NCGC00163939-02] | – | – | – | -58% | -2.2 | 79.4 µM | – | – | – | – | – | – | – | CONFIRMATORY SCREEN Confirm? ([1]; confirmatory screen, YES/NO call): YES; CONFIRMATORY SCREEN Curve Class [1, 16]: -1.2; CONFIRMATORY SCREEN Efficacy (%) ([1]; confirmatory screen, negative = inhibition): -37%; IC50 ([1]; confirmatory screen, read-out: CONFIRMATORY SCREEN IC50): 12.6 µM; COUNTERSCREEN Efficacy (%) [2, 20]: 109%; COUNTERSCREEN Confirm? ([2]; scrambled-peptide counterscreen, YES/NO call): YES; COUNTERSCREEN Curve Class [2, 20]: 3; IC50 ([2]; scrambled-peptide counterscreen, read-out: COUNTERSCREEN IC50): 89.1 µM |
| Cc1coc2c1C(=O)C(=O)c1c-2ccc2c(C)cccc12 [NCGC00247624-03] | -40% | -2.2 | 39.8 µM | – | – | – | -85% | YES | -2.2 | – | -73% | -2.2 | 44.7 µM | – |
| NC(=O)c1ccc(O)c2ncccc12 [NCGC00184888-01] | – | – | – | -24% | -1.4 | 14.1 µM | – | – | – | – | – | – | – | CONFIRMATORY SCREEN Efficacy (%) ([1]; confirmatory screen): -19%; CONFIRMATORY SCREEN Curve Class ([1]; confirmatory screen): 4; COUNTERSCREEN Efficacy (%) ([2]; counterscreen): -10%; COUNTERSCREEN Curve Class ([2]; counterscreen): 4 |
| O=C(O)C(F)(F)F.O=C1CCCC2=C1C1(CCCOC1)N=C(Nc1nc3ccccc3o1)N2 (stereo not shown) [NCGC00188575-01] | – | – | – | -34% | -2.2 | 28.2 µM | – | – | – | – | – | – | – | CONFIRMATORY SCREEN Efficacy (%) ([1]; confirmatory screen): -18%; CONFIRMATORY SCREEN Curve Class ([1]; confirmatory screen): 4; COUNTERSCREEN Efficacy (%) ([2]; counterscreen): -21%; COUNTERSCREEN Curve Class ([2]; counterscreen): 4 |
| Oc1ccc2c(-c3c(-c4ccccn4)nn4c3CCC4)ccnc2c1 [NCGC00408881-01] | -36% | -1.2 | 28.2 µM | – | – | – | -42% | YES | -2.2 | 39.8 µM | -32% | -2.2 | 50.1 µM | – |
| O=C(O)C(F)(F)F.O=C1CCCC2=C1C(c1ccncc1)N=C(Nc1nc3ccccc3o1)N2 (stereo not shown) [NCGC00188839-01] | – | – | – | -44% | -2.2 | 28.2 µM | – | – | – | – | – | – | – | Curve Class (confirmatory screen) [1, 4]: 4; Efficacy (%) (confirmatory screen) [1, 5]: -25%; Curve Class (counterscreen) [2, 10]: 4; Efficacy (%) (counterscreen) [2, 11]: -13% |
| CC1(C)OB(c2ccc(O)c3ncc(N4CCNCC4)cc23)OC1(C)C.O=C(O)C(F)(F)F [NCGC00241053-01] | – | – | – | -78% | -2.2 | 50.1 µM | -132% | YES | -2.1 | 31.6 µM | -102% | -1.1 | 20 µM | – |
| CN1CCN(c2cccc(Nc3nn4c(=O)c5ccc(Br)cc5nc4s3)c2)CC1.Cl [NCGC00187814-01] | -28% | – | 39.8 µM | – | – | – | -63% | YES | -2.4 | 50.1 µM | -54% | -2.2 | 50.1 µM | – |
| O=C(NC1=CC(=O)c2ccccc2C1=O)c1ccccc1.O=C(O)C(F)(F)F [NCGC00357425-01] | – | – | – | -92% | – | 25.1 µM | -159% | YES | -1.1 | 11.2 µM | -113% | -1.1 | 11.2 µM | Curve Class [1, 21]: -1.1 |
| Cc1nc(C(=O)NCC(=O)O)c(O)c2ccc(Oc3ccccc3)cc12 [NCGC00346527-01] | – | – | – | -24% | – | 38.5 µM | – | – | – | – | – | – | – | CONFIRMATORY SCREEN Efficacy (%) ([1]; confirmatory screen): -26%; CONFIRMATORY SCREEN Curve Class ([1]; confirmatory screen): 4; Curve Class [1, 21]: -2.4; COUNTERSCREEN Efficacy (%) ([2]; counterscreen): 0%; COUNTERSCREEN Curve Class ([2]; counterscreen): 4 |
| Cc1c(Cc2ccc3ccccc3n2)c2cc(F)ccc2n1CC(=O)O [NCGC00386286-04] | -116% | -2.1 | 44.7 µM | – | – | – | – | – | – | – | – | – | – | Confirm? (confirmatory screen) [1, 3]: YES; Curve Class (confirmatory screen) [1, 4]: -2.1; Efficacy (%) (confirmatory screen) [1, 5]: -124%; IC50 [1, 6]: 50.1 µM; Curve Class (counterscreen) [2, 10]: -2.1; Efficacy (%) (counterscreen) [2, 11]: -123%; IC50 [2, 12]: 44.7 µM |
| Cc1cc2nc3ccc(N(C)C)cc3[s+]c2cc1N.Cl.[Cl-] [NCGC00181775-02] | – | – | – | -38% | -2.4 | 39.8 µM | -72% | YES | -2.2 | 22.4 µM | -83% | -2.2 | 44.7 µM | – |
